# From patent US8389564B2, “Proteasome inhibitors” (priority 2008, dated 2013)
# Target: T1, chymotrypsin-like activity of the 20S proteasome (Oryctolagus cuniculus, UniProt G1T4Q9)
# T1 construct: In Vitro Purified Rabbit Muscle 20S Proteasome Activity Assays; from tissue; host or cells: rabbit muscle
# T1 sequence (G1T4Q9 1-263): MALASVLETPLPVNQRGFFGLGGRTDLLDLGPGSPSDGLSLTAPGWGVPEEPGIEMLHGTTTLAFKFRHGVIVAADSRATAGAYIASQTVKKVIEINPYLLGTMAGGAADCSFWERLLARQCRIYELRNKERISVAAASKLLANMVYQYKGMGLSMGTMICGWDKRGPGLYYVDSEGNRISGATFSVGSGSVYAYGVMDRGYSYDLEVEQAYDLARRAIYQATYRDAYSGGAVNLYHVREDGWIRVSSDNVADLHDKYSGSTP
# Test: In vitro purified rabbit muscle 20S proteasome assay, chymotrypsin-like (CT-L) activity, Suc-LLVY-AMC substrate
# Type: biochemical
# Details: not given
# Description: (§1) Serial diluted test compounds were added in duplicate to 1 μg/ml purified rabbit 20S proteasome in assay buffer containing 20 mM HEPES, pH7.3, 0.5 mM EDTA, 0.05% Triton X-100 and 0.035% SDS and pre-incubated for 5 min at 37° C. Reactions were initiated by the addition of the Suc-LLVY-AMC peptide substrate at a final concentration of 20 μM. Fluorescence of the cleaved peptide substrate was measured at λex=390 nm and λem=460 nm using a Fluoroskan Ascent 96-well microplate reader (Thermo Electron, Waltham, Mass.). […] The caspase-like activity of the 20S proteasome was determined as described above except that Z-LLEAMC was used as the peptide substrate. For the evaluation of the trypsin-like activity, the SDS was omitted from the assay buffer and Boc-LRR-AMC was used as the peptide substrate.
row,SMILES,IC50 [nM]
1,CC(C)(C)c1ccc(S(=O)(=O)OCC[C@H]2C(=O)N[C@@]3([C@@H](O)[C@@H]4C=CCCC4)C(=O)O[C@@]23C)cc1,3.2 ± 0.4
2,C[C@@]12OC(=O)[C@]1([C@@H](O)[C@@H]1C=CCCC1)NC(=O)[C@@H]2CCOS(=O)(=O)c1ccc(-c2ccccc2)cc1,3.8 ± 0.1
3,C[C@@]12OC(=O)[C@]1([C@@H](O)[C@@H]1C=CCCC1)NC(=O)[C@@H]2CCOS(=O)(=O)c1ccc(Oc2ccccc2)cc1,3.2 ± 0.2
4,C[C@@]12OC(=O)[C@]1([C@@H](O)[C@@H]1C=CCCC1)NC(=O)[C@@H]2CCOC(=O)c1ccc(-c2ccccc2)cc1,9 ± 2
5,CC(=O)OCC[C@H]1C(=O)N[C@@]2([C@@H](O)[C@@H]3C=CCCC3)C(=O)O[C@@]12C [CH2CH2OC(O)CH3],9.1 ± 0.3
6,CN(C)c1cccc2c(S(=O)(=O)OCC[C@H]3C(=O)N[C@@]4([C@@H](O)[C@@H]5C=CCCC5)C(=O)O[C@@]34C)cccc12 [CH2CH2ODs],3 ± 0.5
7,C[C@@]12OC(=O)[C@]1([C@@H](O)[C@@H]1C=CCCC1)NC(=O)[C@@H]2CCOS(C)(=O)=O [CH2CH2OMs],4.3 ± 0.8
8,Cc1ccc(S(=O)(=O)OCC[C@H]2C(=O)N[C@@]3([C@@H](O)[C@@H]4C=CCCC4)C(=O)O[C@@]23C)cc1 [CH2CH2OTs],2.5 ± 0.4

# Same assay, conditions: rabbit 20S proteasome; mean ± SD of 3 or more experiments; read-out: CT-L IC50
row,SMILES,IC50 [nM]
1,C[C@@]12OC(=O)[C@]1([C@@H](O)[C@@H]1C=CCCC1)NC(=O)[C@@H]2CCBr [CH2CH2Br],2.6 ± 0.4
2,CCC[C@H]1C(=O)N[C@@]2([C@@H](O)[C@@H]3C=CCCC3)C(=O)O[C@@]12C [CH2CH2CH3],24 ± 5
3,C[C@@]12OC(=O)[C@]1([C@@H](O)[C@@H]1C=CCCC1)NC(=O)[C@@H]2CCF [CH2CH2F],10 ± 0.7
4,C[C@@]12OC(=O)[C@]1([C@@H](O)[C@@H]1C=CCCC1)NC(=O)[C@@H]2CCI [CH2CH2I],2.8 ± 0.5
5,C[C@@]12OC(=O)[C@]1([C@@H](O)[C@@H]1C=CCCC1)NC(=O)[C@@H]2CCO [CH2CH2OH],14 ± 1.5
6,C[C@H]1C(=O)N[C@@]2([C@@H](O)[C@@H]3C=CCCC3)C(=O)O[C@@]12C [CH3],7.5 ± 0.6

# Target: T2, caspase-like activity of the 20S proteasome (Oryctolagus cuniculus, UniProt A0A5F9DQW2)
# T2 construct: In Vitro Purified Rabbit Muscle 20S Proteasome Activity Assays; from tissue; host or cells: rabbit muscle
# T2 sequence (A0A5F9DQW2 1-212): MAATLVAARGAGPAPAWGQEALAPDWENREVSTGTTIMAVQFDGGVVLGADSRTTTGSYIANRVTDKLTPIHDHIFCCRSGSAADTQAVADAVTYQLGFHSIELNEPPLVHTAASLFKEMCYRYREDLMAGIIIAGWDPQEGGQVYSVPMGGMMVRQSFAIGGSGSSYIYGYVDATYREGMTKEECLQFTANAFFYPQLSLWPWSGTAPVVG
# Test: In vitro purified rabbit muscle 20S proteasome assay, caspase-like (C-L) activity, Z-LLEAMC substrate
# Type: biochemical
# Details: not given
# Description: as §1
row,SMILES,IC50 [nM]
1,CC(C)(C)c1ccc(S(=O)(=O)OCC[C@H]2C(=O)N[C@@]3([C@@H](O)[C@@H]4C=CCCC4)C(=O)O[C@@]23C)cc1,180 ± 4
2,C[C@@]12OC(=O)[C@]1([C@@H](O)[C@@H]1C=CCCC1)NC(=O)[C@@H]2CCOS(=O)(=O)c1ccc(-c2ccccc2)cc1,101 ± 11
3,C[C@@]12OC(=O)[C@]1([C@@H](O)[C@@H]1C=CCCC1)NC(=O)[C@@H]2CCOS(=O)(=O)c1ccc(Oc2ccccc2)cc1,85 ± 9
4,C[C@@]12OC(=O)[C@]1([C@@H](O)[C@@H]1C=CCCC1)NC(=O)[C@@H]2CCOC(=O)c1ccc(-c2ccccc2)cc1,160 ± 9
5,CC(=O)OCC[C@H]1C(=O)N[C@@]2([C@@H](O)[C@@H]3C=CCCC3)C(=O)O[C@@]12C [CH2CH2OC(O)CH3],971 ± 56
6,CN(C)c1cccc2c(S(=O)(=O)OCC[C@H]3C(=O)N[C@@]4([C@@H](O)[C@@H]5C=CCCC5)C(=O)O[C@@]34C)cccc12 [CH2CH2ODs],90 ± 11
7,C[C@@]12OC(=O)[C@]1([C@@H](O)[C@@H]1C=CCCC1)NC(=O)[C@@H]2CCOS(C)(=O)=O [CH2CH2OMs],873 ± 32
8,Cc1ccc(S(=O)(=O)OCC[C@H]2C(=O)N[C@@]3([C@@H](O)[C@@H]4C=CCCC4)C(=O)O[C@@]23C)cc1 [CH2CH2OTs],127 ± 5

# Same assay, conditions: rabbit 20S proteasome; mean ± SD of 3 or more experiments; read-out: C-L IC50
row,SMILES,IC50 [nM]
1,C[C@@]12OC(=O)[C@]1([C@@H](O)[C@@H]1C=CCCC1)NC(=O)[C@@H]2CCBr [CH2CH2Br],290 ± 60
2,CCC[C@H]1C(=O)N[C@@]2([C@@H](O)[C@@H]3C=CCCC3)C(=O)O[C@@]12C [CH2CH2CH3],1200 ± 200
3,C[C@@]12OC(=O)[C@]1([C@@H](O)[C@@H]1C=CCCC1)NC(=O)[C@@H]2CCF [CH2CH2F],781 ± 47
4,C[C@@]12OC(=O)[C@]1([C@@H](O)[C@@H]1C=CCCC1)NC(=O)[C@@H]2CCI [CH2CH2I],410 ± 230
5,C[C@@]12OC(=O)[C@]1([C@@H](O)[C@@H]1C=CCCC1)NC(=O)[C@@H]2CCO [CH2CH2OH],1200 ± 57
6,C[C@H]1C(=O)N[C@@]2([C@@H](O)[C@@H]3C=CCCC3)C(=O)O[C@@]12C [CH3],460 ± 49

# System: RPMI 8226
# Test: Cytotoxicity in RPMI 8226
# Details: Homo sapiens, RPMI-8226, read-out: Cytotoxicity in RPMI 8226 Average IC50 ± SD (nM)
# Description: B16-F10 (ATCC; CRL-6475), DU 145 (ATCC; HTB-81), HEK293 (ATCC; CRL-1573), HT-29 (ATCC; HTB-38), LoVo (ATCC; CCL-229), MDA-MB-231 (ATCC; HTB-26), MIA PaCa-2 (ATCC; CRL-1420), NCI-H292 (ATCC; CRL-1848), OVCAR-3 (ATCC, HTB-161), PANC-1 (ATCC; CRL-1469), PC-3 (ATCC; CRL-1435), RPMI 8226 (ATCC; CCL-155) and U266 (ATCC; TIB-196) are maintained in appropriate culture media. The cells are cultured in an incubator at 37° C. in 5% CO2 and 95% humidified air.
# 20 mM stock solutions of the test compound are prepared in 100% DMSO, aliquoted and stored at −80° C. […] The plates are returned to the incubator for 48 hours. The final concentration of DMSO is 0.25% in all samples.
# Following 48 hours of drug exposure, 10 μl of 0.2 mg/ml resazurin (obtained from Sigma-Aldrich Chemical Co.) in Mg^2+, Ca^2+ free phosphate buffered saline are added to each well and the plates are returned to the incubator for 3-6 hours. Since living cells metabolize Resazurin, the fluorescence of the reduction product of Resazurin is measured using a Fusion microplate fluorometer (Packard Bioscience) with λex=535 nm and λem=590 nm filters. Resazurin dye in medium without cells is used to determine the background, which was subtracted from the data for all experimental wells.
row,SMILES,IC50 [nM]
1,CC(C)(C)c1ccc(S(=O)(=O)OCC[C@H]2C(=O)N[C@@]3([C@@H](O)[C@@H]4C=CCCC4)C(=O)O[C@@]23C)cc1,94 ± 18
2,C[C@@]12OC(=O)[C@]1([C@@H](O)[C@@H]1C=CCCC1)NC(=O)[C@@H]2CCOS(=O)(=O)c1ccc(-c2ccccc2)cc1,43 ± 12
3,C[C@@]12OC(=O)[C@]1([C@@H](O)[C@@H]1C=CCCC1)NC(=O)[C@@H]2CCOS(=O)(=O)c1ccc(Oc2ccccc2)cc1,78 ± 25
4,C[C@@]12OC(=O)[C@]1([C@@H](O)[C@@H]1C=CCCC1)NC(=O)[C@@H]2CCOC(=O)c1ccc(-c2ccccc2)cc1,290 ± 108
5,C[C@@]12OC(=O)[C@]1([C@@H](O)[C@@H]1C=CCCC1)NC(=O)[C@@H]2CCBr [CH2CH2Br],7.8 ± 1.4
6,CCC[C@H]1C(=O)N[C@@]2([C@@H](O)[C@@H]3C=CCCC3)C(=O)O[C@@]12C [CH2CH2CH3],6300
7,"C[C@@]12OC(=O)[C@]1([C@@H](O)[C@@H]1C=CCCC1)NC(=O)[C@@H]2CCCl [CH2CH2Cl, Salinosporamide A, reference compound]",9.8 ± 3
8,C[C@@]12OC(=O)[C@]1([C@@H](O)[C@@H]1C=CCCC1)NC(=O)[C@@H]2CCF [CH2CH2F],875 ± 430
9,C[C@@]12OC(=O)[C@]1([C@@H](O)[C@@H]1C=CCCC1)NC(=O)[C@@H]2CCI [CH2CH2I],6.9 ± 0.9
10,CC(=O)OCC[C@H]1C(=O)N[C@@]2([C@@H](O)[C@@H]3C=CCCC3)C(=O)O[C@@]12C [CH2CH2OC(O)CH3],20000
11,CN(C)c1cccc2c(S(=O)(=O)OCC[C@H]3C(=O)N[C@@]4([C@@H](O)[C@@H]5C=CCCC5)C(=O)O[C@@]34C)cccc12 [CH2CH2ODs],30 ± 6
12,C[C@@]12OC(=O)[C@]1([C@@H](O)[C@@H]1C=CCCC1)NC(=O)[C@@H]2CCO [CH2CH2OH],38000
13,C[C@@]12OC(=O)[C@]1([C@@H](O)[C@@H]1C=CCCC1)NC(=O)[C@@H]2CCOS(C)(=O)=O [CH2CH2OMs],144 ± 46
14,Cc1ccc(S(=O)(=O)OCC[C@H]2C(=O)N[C@@]3([C@@H](O)[C@@H]4C=CCCC4)C(=O)O[C@@]23C)cc1 [CH2CH2OTs],27 ± 8.5
15,CC[C@H]1C(=O)N[C@@]2([C@@H](O)[C@@H]3C=CCCC3)C(=O)O[C@@]12C [CH2CH3],6300
16,C[C@H]1C(=O)N[C@@]2([C@@H](O)[C@@H]3C=CCCC3)C(=O)O[C@@]12C [CH3],6300

# Target: T3, trypsin-like activity of the 20S proteasome (Oryctolagus cuniculus, UniProt G1SWK8)
# T3 construct: In Vitro Purified Rabbit Muscle 20S Proteasome Activity Assays; from tissue; host or cells: rabbit muscle
# T3 sequence (G1SWK8 1-271): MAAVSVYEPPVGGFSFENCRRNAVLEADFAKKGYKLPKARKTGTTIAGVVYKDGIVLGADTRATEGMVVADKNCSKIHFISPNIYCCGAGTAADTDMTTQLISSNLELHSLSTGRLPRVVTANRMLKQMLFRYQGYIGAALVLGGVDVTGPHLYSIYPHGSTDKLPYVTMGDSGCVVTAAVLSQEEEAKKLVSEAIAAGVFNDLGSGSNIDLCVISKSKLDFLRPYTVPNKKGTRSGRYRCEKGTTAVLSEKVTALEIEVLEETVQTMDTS
# Test: In vitro purified rabbit muscle 20S proteasome assay, trypsin-like (T-L) activity, Boc-LRR-AMC substrate
# Type: biochemical
# Details: not given
# Description: as §1
row,SMILES,IC50 [nM]
1,CC(C)(C)c1ccc(S(=O)(=O)OCC[C@H]2C(=O)N[C@@]3([C@@H](O)[C@@H]4C=CCCC4)C(=O)O[C@@]23C)cc1,31 ± 1
2,C[C@@]12OC(=O)[C@]1([C@@H](O)[C@@H]1C=CCCC1)NC(=O)[C@@H]2CCOS(=O)(=O)c1ccc(-c2ccccc2)cc1,15 ± 1
3,C[C@@]12OC(=O)[C@]1([C@@H](O)[C@@H]1C=CCCC1)NC(=O)[C@@H]2CCOS(=O)(=O)c1ccc(Oc2ccccc2)cc1,14 ± 1
4,C[C@@]12OC(=O)[C@]1([C@@H](O)[C@@H]1C=CCCC1)NC(=O)[C@@H]2CCOC(=O)c1ccc(-c2ccccc2)cc1,52 ± 5
5,CC(=O)OCC[C@H]1C(=O)N[C@@]2([C@@H](O)[C@@H]3C=CCCC3)C(=O)O[C@@]12C [CH2CH2OC(O)CH3],745 ± 40
6,CN(C)c1cccc2c(S(=O)(=O)OCC[C@H]3C(=O)N[C@@]4([C@@H](O)[C@@H]5C=CCCC5)C(=O)O[C@@]34C)cccc12 [CH2CH2ODs],12 ± 2.3
7,C[C@@]12OC(=O)[C@]1([C@@H](O)[C@@H]1C=CCCC1)NC(=O)[C@@H]2CCOS(C)(=O)=O [CH2CH2OMs],65 ± 8
8,Cc1ccc(S(=O)(=O)OCC[C@H]2C(=O)N[C@@]3([C@@H](O)[C@@H]4C=CCCC4)C(=O)O[C@@]23C)cc1 [CH2CH2OTs],9.9 ± 0.2

# Same assay, conditions: rabbit 20S proteasome; mean ± SD of 3 or more experiments; read-out: T-L IC50
row,SMILES,IC50 [nM]
1,C[C@@]12OC(=O)[C@]1([C@@H](O)[C@@H]1C=CCCC1)NC(=O)[C@@H]2CCBr [CH2CH2Br],14 ± 2
2,CCC[C@H]1C(=O)N[C@@]2([C@@H](O)[C@@H]3C=CCCC3)C(=O)O[C@@]12C [CH2CH2CH3],1100 ± 200
3,C[C@@]12OC(=O)[C@]1([C@@H](O)[C@@H]1C=CCCC1)NC(=O)[C@@H]2CCF [CH2CH2F],525 ± 15
4,C[C@@]12OC(=O)[C@]1([C@@H](O)[C@@H]1C=CCCC1)NC(=O)[C@@H]2CCI [CH2CH2I],13 ± 3
5,C[C@@]12OC(=O)[C@]1([C@@H](O)[C@@H]1C=CCCC1)NC(=O)[C@@H]2CCO [CH2CH2OH],1200 ± 150
6,CC[C@H]1C(=O)N[C@@]2([C@@H](O)[C@@H]3C=CCCC3)C(=O)O[C@@]12C [CH2CH3],610 ± 35
7,C[C@H]1C(=O)N[C@@]2([C@@H](O)[C@@H]3C=CCCC3)C(=O)O[C@@]12C [CH3],370 ± 44
